From patent EP0241804A2, “Preserved antacid preparations” (BAYER AG, priority 1986, dated 1987)

Test system: Testmikroorganismen
Test: Preservative challenge test (BP 1980 / USP XXI) of antacid preparations
Type: cell-based
Conditions: for Ergebnisse von Konservierungstests: Hydrotalcitsuspensionen with the preservative added at various concentrations (Tabelle 2); for Vermehrung von Bakterien und Hefen: Hydrotalcitsuspensionen, also at high preservative concentrations
Text: Der Nachweis der einwandfreien Haltbarmachung von Antacida-Zubereitungen erfolgte mit Hilfe geeigneter Konservierungsbelastungstests wie sie z.B. in der Britischen Pharmakopöe von 198O (British Pharmacopoeia 198O, Addendum 1982, Revised Apendix XVIC: Efficacy of Antimicrobial Preservatives in Pharmaceutical Products) oder der Pharmakopöe der Vereinigten Staaten (The United States Pharmacopeia XXI (1985) Antimicrobial Preservatives Effectiveness,S. 1151-1156) beschrieben werden.
Neben einer Richtlinie der WHO für nichtsterile Produkte, die eine Begrenzung des Keimgehalts in nichtsterilen oralen Arzneimitteln auf 1OOO/ml fordert, gelten unterschiedlich hohe Anforderungen hinsichtlich der Abtötungsrate für bestimmte Testmikroorganismen, je nach Pharmakopöe. Die britische Pharmakopöe verlangt z.B. eine Verminderung der Bakterienkonzentration um 2 Zehnerpotenzen innerhalb von 7 Tagen sowie keine Vermehrung von Hefen und Schimmelpilzen (s. Tab. 1).

| SMILES | Ergebnisse von Konservierungstests | Vermehrung von Bakterien und Hefen |
| --- | --- | --- |
| O=CC=Cc1ccccc1 [Zimtaldehyd, 3-Phenyl-2-propenal] | gut konserviert |  |
| Cc1ccc(C(C)C)c(O)c1 [Thymol, 5-Methyl-2-(1-methylethyl)phenol] | gut konserviert |  |
| C=CCc1ccc(O)c(OC)c1 [Eugenol, 2-Methoxy-4-(2-propenyl)phenol] | gut konserviert |  |
| N=C(NCCCCCCNC(=N)NC(=N)Nc1ccc(Cl)cc1)NC(=N)Nc1ccc(Cl)cc1 [Chlorhexidin] | unwirksam |  |
| C/C=C/C=C/C(=O)O [Sorbinsäure] | unwirksam | Vermehrung von Bakterien und Hefen |
| O=C(O)c1ccccc1 [Benzoesäure] | unwirksam | Vermehrung von Bakterien und Hefen |
